Data published in patent US20110136862A1, “NOVEL TETRAMETHYL SUBSTITUTED PIPERIDINE DERIVATIVES AND THEIR USE AS MONOAMINE NEUROTRANSMITTER RE-UPTAKE INHIBITORS” (NEUROSEARCH A/S, priority 2008, published 2011).

Key:
Type in all cases: biochemical
[1] = molecular target: T1, reuptake of serotonine (5-HT) in synaptosomes (Rattus norvegicus, UniProt P31652); assay: Inhibition of 5-HT reuptake in synaptosomes; conditions: 3H-5-HT, read-out: 5-HT-uptake IC50
T1 construct: serotonine (5-HT) in synaptosomes; from tissue
Method: (§1) Compounds were tested for their ability to inhibit the reuptake of the monoamine neurotransmitters dopamine (DA) noradrenaline (NA) and serotonine (5-HT) in synaptosomes as described in WO 97/16451 (NeuroSearch A/S).
(§2) The test values are given as IC50 (the concentration (μM) of the test substance which inhibits the specific binding of ^3H-DA, ^3H-NA, or ^3H-5-HT by 50%).

[2] = molecular target: T2, reuptake of dopamine (DA) in synaptosomes (Rattus norvegicus, UniProt P23977); assay: Inhibition of DA reuptake in synaptosomes; conditions: 3H-DA, read-out: DA-uptake IC50
T2 construct: in synaptosomes as described in WO 97/16451; from tissue
Method: as §1, §2

[3] = molecular target: T3, reuptake of noradrenaline (NA) in synaptosomes (Rattus norvegicus, UniProt Q63380); assay: Inhibition of NA reuptake in synaptosomes; conditions: 3H-NA, read-out: NA-uptake IC50
T3 construct: in synaptosomes as described in WO 97/16451; from tissue
Method: as §1, §2

T2 sequence (P23977 whole entry): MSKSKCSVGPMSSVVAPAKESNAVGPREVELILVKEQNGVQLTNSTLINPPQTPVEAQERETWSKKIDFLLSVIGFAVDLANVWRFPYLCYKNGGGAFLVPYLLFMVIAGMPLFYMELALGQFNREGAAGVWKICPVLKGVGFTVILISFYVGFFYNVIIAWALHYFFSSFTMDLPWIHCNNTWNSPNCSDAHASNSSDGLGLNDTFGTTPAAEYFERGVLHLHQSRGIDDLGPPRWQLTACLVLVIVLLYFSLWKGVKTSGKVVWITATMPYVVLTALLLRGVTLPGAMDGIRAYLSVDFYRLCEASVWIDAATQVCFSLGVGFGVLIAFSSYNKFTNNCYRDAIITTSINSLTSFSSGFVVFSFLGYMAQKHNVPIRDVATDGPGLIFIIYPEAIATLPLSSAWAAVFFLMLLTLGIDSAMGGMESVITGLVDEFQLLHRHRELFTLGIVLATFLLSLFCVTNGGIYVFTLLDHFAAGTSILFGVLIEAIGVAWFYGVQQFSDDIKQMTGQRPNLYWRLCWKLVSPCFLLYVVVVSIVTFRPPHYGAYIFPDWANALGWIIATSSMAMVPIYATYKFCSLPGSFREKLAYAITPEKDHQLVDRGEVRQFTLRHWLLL
T3 sequence (Q63380 1-617): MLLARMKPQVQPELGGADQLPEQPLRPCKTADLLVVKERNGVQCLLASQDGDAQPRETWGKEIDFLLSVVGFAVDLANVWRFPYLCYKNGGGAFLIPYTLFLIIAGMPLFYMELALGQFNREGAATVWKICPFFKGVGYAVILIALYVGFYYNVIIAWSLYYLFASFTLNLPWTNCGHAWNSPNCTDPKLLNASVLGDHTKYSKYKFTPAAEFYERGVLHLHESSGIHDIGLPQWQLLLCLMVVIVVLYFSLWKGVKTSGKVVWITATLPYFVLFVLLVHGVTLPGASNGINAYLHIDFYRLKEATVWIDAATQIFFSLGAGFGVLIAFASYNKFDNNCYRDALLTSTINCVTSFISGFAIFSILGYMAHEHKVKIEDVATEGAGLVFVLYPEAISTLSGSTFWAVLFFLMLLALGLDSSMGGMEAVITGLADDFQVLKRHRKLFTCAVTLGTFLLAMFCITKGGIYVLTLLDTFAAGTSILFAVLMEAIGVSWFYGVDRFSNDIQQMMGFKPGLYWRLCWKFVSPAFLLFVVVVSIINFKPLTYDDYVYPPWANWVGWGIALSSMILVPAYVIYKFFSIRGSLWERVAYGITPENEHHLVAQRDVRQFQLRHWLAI
T1 sequence (P31652 whole entry): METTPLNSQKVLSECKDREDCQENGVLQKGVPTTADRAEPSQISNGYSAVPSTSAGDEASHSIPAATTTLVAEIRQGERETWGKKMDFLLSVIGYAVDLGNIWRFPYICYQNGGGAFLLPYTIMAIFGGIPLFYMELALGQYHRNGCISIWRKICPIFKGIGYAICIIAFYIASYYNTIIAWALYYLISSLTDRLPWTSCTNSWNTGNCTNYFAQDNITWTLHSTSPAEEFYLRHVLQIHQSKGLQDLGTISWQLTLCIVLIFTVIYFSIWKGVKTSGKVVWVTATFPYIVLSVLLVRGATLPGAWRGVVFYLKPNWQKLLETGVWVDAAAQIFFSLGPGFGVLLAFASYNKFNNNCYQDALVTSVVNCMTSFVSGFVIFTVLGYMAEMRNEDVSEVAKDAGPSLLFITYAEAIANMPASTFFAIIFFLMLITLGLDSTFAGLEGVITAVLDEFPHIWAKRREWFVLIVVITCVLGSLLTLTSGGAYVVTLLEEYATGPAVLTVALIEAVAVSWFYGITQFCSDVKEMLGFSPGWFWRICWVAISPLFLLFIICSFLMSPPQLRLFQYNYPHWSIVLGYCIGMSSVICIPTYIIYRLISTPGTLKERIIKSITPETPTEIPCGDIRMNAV

Row | Structure (SMILES) | IC50 [1] | IC50 [2] | IC50 [3]
1 | CC1(C)CC(Oc2ccc3cc(O)ccc3n2)CC(C)(C)N1 [2-(2,2,6,6-Tetramethyl-piperidin-4-yloxy)-quinolin-6-ol] | 0.013 µM | 0.078 µM | 0.13 µM
2 | CC1(C)CC(Oc2ccc3ccccc3n2)CC(C)(C)N1 [2-(2,2,6,6-Tetramethyl-piperidin-4-yloxy)-quinoline] | 0.00068 µM | 0.18 µM | 0.013 µM
